Test results published in patent publication US7812183B2, “Benzopyran derivatives as potassium channel openers” (Janssen Pharmaceutica NV, priority 2005, dated 2010).

Molecular target: T1, KATP channels (Homo sapiens, UniProt O60706+Q14654)
T1 construct: TE671 human medulloblastoma cells were obtained from ATCC; host or cells: TE671 human medulloblastoma cells
Assay: Potassium Channel Assay (FLIPR membrane potential, TE671 cells)
Format: cell-based
Details: TE671 human medulloblastoma cells, Membrane Potential Assay Dye, room temperature, hyperpolarization from KATP channel opening
Description: TE671 human medulloblastoma cells were obtained from ATCC and grown in Dulbecco's modified Eagle's medium (DMEM) supplemented with 10% fetal bovine serum, 100 U/ml penicillin and 100 U/ml streptomycine.
The day before testing, the cells were plated in black 96-well plates at 50K/well. On the day of testing, the growth media was removed, then 100 μl of FLIPR buffer (20 mM HEPES, 120 mM NaCl, 2 mM KCl, 2 mM CaCl2, 1 mM MgCl2, 5 mM Glucose) and 100 μl of Membrane Potential Assay Dye (Molecular Devices) dissolved in FLIPR buffer were added to each well. The cells were incubated at room temperature for 15 to 30 min.
The effect of test compounds on KATP channels were evaluated on a fluorometric imaging plate reader (FLIPR, Molecular Devices) at room temperature. After a baseline period, 50 μl of 5× stock solution of test compound prepared in FLIPR buffer was added and fluorescent change was monitored for 3 minutes. After this reading, glyburide, a KATP channel blocker, was added to a final concentration of 5 μM to check the specificity of the test compound as a KATP channel openers. Hyperpolarization resulting from KATP channel opening was observed as a decrease in fluorescent intensity.
Representative compounds of the present invention were tested according to the procedure described above, with results as listed in Table 7, below.

T1 sequence (O60706 1-1549 isoform O60706-2): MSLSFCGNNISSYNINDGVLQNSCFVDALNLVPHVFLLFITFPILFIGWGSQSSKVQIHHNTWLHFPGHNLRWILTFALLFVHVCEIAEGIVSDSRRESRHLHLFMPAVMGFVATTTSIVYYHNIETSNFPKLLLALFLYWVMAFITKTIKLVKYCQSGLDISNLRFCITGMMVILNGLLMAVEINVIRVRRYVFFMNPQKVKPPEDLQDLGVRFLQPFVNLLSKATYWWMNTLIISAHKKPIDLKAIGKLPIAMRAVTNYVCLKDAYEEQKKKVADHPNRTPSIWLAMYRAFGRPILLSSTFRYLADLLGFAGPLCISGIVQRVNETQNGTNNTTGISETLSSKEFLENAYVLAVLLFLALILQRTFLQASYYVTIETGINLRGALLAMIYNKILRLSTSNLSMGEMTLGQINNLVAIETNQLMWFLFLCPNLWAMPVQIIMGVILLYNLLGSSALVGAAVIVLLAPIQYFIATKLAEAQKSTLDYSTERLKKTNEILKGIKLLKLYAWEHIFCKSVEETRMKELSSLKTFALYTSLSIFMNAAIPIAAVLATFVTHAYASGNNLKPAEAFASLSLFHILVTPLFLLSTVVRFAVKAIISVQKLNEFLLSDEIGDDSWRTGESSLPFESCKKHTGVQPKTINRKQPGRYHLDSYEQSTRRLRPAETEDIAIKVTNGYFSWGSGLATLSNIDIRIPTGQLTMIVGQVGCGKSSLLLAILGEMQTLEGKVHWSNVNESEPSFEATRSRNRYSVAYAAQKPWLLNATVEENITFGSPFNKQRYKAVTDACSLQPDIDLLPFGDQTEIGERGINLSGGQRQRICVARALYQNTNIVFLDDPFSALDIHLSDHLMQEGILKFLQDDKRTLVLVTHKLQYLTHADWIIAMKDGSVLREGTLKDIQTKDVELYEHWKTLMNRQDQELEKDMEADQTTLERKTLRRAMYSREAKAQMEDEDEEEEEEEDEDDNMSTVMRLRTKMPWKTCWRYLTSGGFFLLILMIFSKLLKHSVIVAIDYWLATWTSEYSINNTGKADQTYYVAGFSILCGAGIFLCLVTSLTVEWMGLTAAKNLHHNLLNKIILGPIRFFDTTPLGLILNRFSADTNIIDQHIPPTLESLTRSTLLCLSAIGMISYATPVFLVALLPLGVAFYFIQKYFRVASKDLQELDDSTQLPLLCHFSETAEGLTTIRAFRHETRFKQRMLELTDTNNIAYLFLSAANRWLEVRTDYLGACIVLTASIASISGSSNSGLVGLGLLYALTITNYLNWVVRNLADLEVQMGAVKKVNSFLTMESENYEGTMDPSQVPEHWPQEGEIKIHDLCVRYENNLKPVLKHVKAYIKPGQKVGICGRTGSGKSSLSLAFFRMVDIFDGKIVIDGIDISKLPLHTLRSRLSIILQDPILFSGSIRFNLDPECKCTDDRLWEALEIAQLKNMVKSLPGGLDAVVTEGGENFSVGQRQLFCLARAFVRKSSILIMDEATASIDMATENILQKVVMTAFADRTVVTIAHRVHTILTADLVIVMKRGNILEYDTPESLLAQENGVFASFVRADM
T1 sequence (Q14654 whole entry): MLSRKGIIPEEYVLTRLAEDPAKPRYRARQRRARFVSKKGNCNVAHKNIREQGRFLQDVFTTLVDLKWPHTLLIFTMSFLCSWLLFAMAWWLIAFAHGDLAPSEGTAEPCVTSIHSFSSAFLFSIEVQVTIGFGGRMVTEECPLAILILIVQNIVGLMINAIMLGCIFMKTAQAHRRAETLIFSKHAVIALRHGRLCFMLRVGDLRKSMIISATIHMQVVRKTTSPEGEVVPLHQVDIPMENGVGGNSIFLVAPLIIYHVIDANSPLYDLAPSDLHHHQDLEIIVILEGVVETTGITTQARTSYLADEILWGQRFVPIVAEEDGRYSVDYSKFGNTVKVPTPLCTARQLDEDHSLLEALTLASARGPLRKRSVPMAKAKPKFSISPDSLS

Row | EC50 [µM] | SMILES
1 | > 30 | CC1(C)Oc2ccc(C#N)cc2[C@@H](N2CCN(c3ccc(Cl)cc3)CC2)[C@@H]1O (racemic) [Compound 50, 4-[4-(4-Chloro-phenyl)-piperazin-1-yl]-3-hydroxy-2,2-dimethyl-chroman-6-carbonitrile]
2 | > 30 | N#Cc1ccc2c(c1)[C@@H](NC(=O)c1cccc(Cl)c1)[C@H](O)C1(CCS(=O)(=O)CC1)O2 [Compound 201, (3S,4R)-3-Chloro-N-[6-cyano-3-hydroxy-2,2-(tetrahydro-4-sulfonylpyranyl)-chroman-4-yl]-benzamide]
3 | > 30 | CC1(C)Oc2ccc(S(=O)(=O)c3ccccc3)cc2[C@@H](Nc2noc3c(Cl)cccc23)[C@@H]1O [Compound 87, (3S,4R)-6-Benzenesulfonyl-4R-(7-chloro-benzo[d]isoxazol-3-ylamino)-2,2-dimethyl-chroman-3S-ol]
4 | > 30 | CC1(C)Oc2ccc(C#N)cc2[C@@H](S(=O)(=O)c2ncc[nH]2)C1O (stereo in doubt) [Compound 71, (3S,4R)-3-Hydroxy-4-(1H-imidazole-2-sulfonyl)-2,2-dimethyl-chroman-6-carbonitrile]
5 | 4.33 | CC1(C)Oc2ccncc2[C@@H](n2nccc2-c2ccc(Cl)cc2)[C@@H]1O (racemic) [Compound 108, 4-[5-(4-Chloro-phenyl)-pyrazol-1-yl]-2,2-dimethyl-3,4-dihydro-2H-pyrano[3,2-c]pyridin-3-ol]
6 | 6.77 | CC1(C)Oc2ccc(C#N)cc2[C@@H](S(=O)(=O)c2nc3cc(Cl)ccc3o2)[C@@H]1O (racemic) [Compound 17, 4-(5-Chloro-benzooxazole-2-sulfonyl)-3-hydroxy-2,2-dimethyl-chroman-6-carbonitrile]
7 | 5.19 | CC1(C)Oc2ccc(S(=O)(=O)c3ccccc3)cc2[C@@H](Nc2noc3cc(Cl)ccc23)[C@@H]1O [Compound 73, (3S,4R)-6-Benzenesulfonyl-4R-(6-chloro-benzo[d]isoxazol-3-ylamino)-2,2-dimethyl-chroman-3S-ol]
8 | 0.4 | CC1(C)Oc2ccc(S(=O)(=O)c3ccccc3)cc2[C@@H](n2oc3ccc(Cl)cc3c2=O)[C@@H]1O [Compound 76, 2-(6-Benzenesulfonyl-3S-hydroxy-2,2-dimethyl-chroman-4-yl)-5-chloro-4R-benzo[d]isoxazol-3-one]
9 | 13.5 | CC1(C)Oc2ccc(C#N)cc2[C@@H](n2c(=O)ccn2-c2ccccc2)[C@@H]1O (racemic) [Compound 62, 3-Hydroxy-2,2-dimethyl-4-(5-oxo-2-phenyl-2,5-dihydro-pyrazol-1-yl)-chroman-6-carbonitrile]
10 | 0.1 | CC1(C)Oc2ccc(S(=O)(=O)c3ccccc3)cc2[C@@H](n2oc3cc(Cl)ccc3c2=O)[C@@H]1O [Compound 78, 2-(6-Benzenesulfonyl-3S-hydroxy-2,2-dimethyl-chroman-4-yl)-6-chloro-4R-benzo[d]isoxazol-3-one]
11 | > 30 | CC1(C)Oc2ccncc2[C@@H](n2ccnc2-c2ccccc2)[C@@H]1O (racemic) [Compound 105, 2,2-Dimethyl-4-(2-phenyl-imidazol-1-yl)-3,4-dihydro-2H-pyrano[3,2-c]pyridin-3-ol]
12 | 16.6 | CC1(C)Oc2ccc(Cl)cc2[C@@H](OC2=NN(c3ccccc3)CC2)[C@@H]1O (racemic) [Compound 59, 6-Chloro-2,2-dimethyl-4-(1-phenyl-4,5-dihydro-1H-pyrazol-3-yloxy)-chroman-3-ol]
13 | 15.4 | CC1(C)Oc2ccc(C#N)cc2[C@@H](S(=O)(=O)c2noc3cc(Cl)ccc23)[C@@H]1O (racemic) [Compound 19, 4-(6-Chloro-benzo[d]isoxazole-3-sulfonyl)-3-hydroxy-2,2-dimethyl-chroman-6-carbonitrile]
14 | 25.7 | COc1ccc(S(=O)(=O)c2ccc3c(c2)[C@@H](Nc2noc4ccc(Cl)cc24)[C@H](O)C(C)(C)O3)cc1 [Compound 104, 4R-(5-Chloro-benzo[d]isoxazol-3-ylamino)-6-(4-methoxy-benzenesulfonyl)-2,2-dimethyl-chroman-3S-ol]
15 | 14.6 | CC1(C)Oc2ccc(C#N)cc2[C@@H](Nc2nc3cc(Cl)ccc3s2)[C@@H]1O (racemic) [Compound 1, 4-(5-Chloro-benzothiazol-2-ylamino)-3-hydroxy-2,2-dimethyl-chroman-6-carbonitrile]
16 | 22.6 | Cc1cccc2c(=O)n([C@@H]3c4cc(C#N)ccc4OC(C)(C)[C@H]3O)oc12 [Compound 32, 3S-Hydroxy-2,2-dimethyl-4R-(7-methyl-3-oxo-3H-benzo[d]isoxazol-2-yl)-chroman-6-carbonitrile]
17 | > 30 | CC1(C)Oc2ccc(S(=O)(=O)N3CCCCC3)cc2[C@@H](Nc2noc3ccc(Cl)cc23)[C@@H]1O [Compound 88, 4R-(5-Chloro-benzo[d]isoxazol-3-ylamino)-2,2-dimethyl-6-(piperidine-1-sulfonyl)-chroman-3S-ol]

Row | EC50 [µM] | SMILES
18 | 13.6 | CCN(CC)S(=O)(=O)c1ccc2c(c1)[C@@H](Nc1noc3cc(Cl)ccc13)[C@H](O)C(C)(C)O2 [Compound 81, 4R-(6-Chloro-benzo[d]isoxazol-3-ylamino)-3S-hydroxy-2,2-dimethyl-chroman-6-sulfonic acid diethylamide]
19 | 2.62 | CC1(C)Oc2ccc(C#N)cc2[C@@H](Oc2ccn(-c3ccccc3)n2)[C@@H]1O (racemic) [Compound 58, 3-Hydroxy-2,2-dimethyl-4-(1-phenyl-1H-pyrazol-3-yloxy)-chroman-6-carbonitrile]
20 | 19.3 | CC1(C)Oc2ccc(C#N)cc2[C@@H](Oc2noc3ccc(F)cc23)[C@@H]1O [Compound 70, (3S,4R)-4-(5-Fluoro-benzo[d]isoxazol-3-yloxy)-3-hydroxy-2,2-dimethyl-chroman-6-carbonitrile]
21 | 7.99 | CC1(C)Oc2ccc(S(=O)(=O)c3ccc(Cl)cc3)cc2[C@@H](n2oc3cc(Cl)ccc3c2=O)[C@@H]1O [Compound 102, 6-Chloro-2-[6-(4-chloro-benzenesulfonyl)-3S-hydroxy-2,2-dimethyl-chroman-4-yl]-R-benzo[d]isoxazol-3-one]
22 | 16.1 | CC1(C)Oc2ccc(C#N)cc2[C@@H](Oc2nsc3ccccc23)[C@@H]1O (racemic) [Compound 20, 4-(Benzo[d]isothiazol-3-yloxy)-3-hydroxy-2,2-dimethyl-chroman-6-carbonitrile]
23 | > 30 | CC1(C)Oc2ccc(C#N)cc2[C@@H](N2CCN(c3ccc([N+](=O)[O-])cc3)CC2)[C@@H]1O (racemic) [Compound 51, 3-Hydroxy-2,2-dimethyl-4-[4-(4-nitro-phenyl)-piperazin-1-yl]-chroman-6-carbonitrile]
24 | > 30 | CC1(C)Oc2ccc(C#N)cc2[C@@H](Sc2nc3cc(OC(F)F)ccc3[nH]2)[C@@H]1O (racemic) [Compound 16, 4-(5-Difluoromethoxy-1H-benzoimidazol-2-ylsulfanyl)-3-hydroxy-2,2-dimethyl-chroman-6-carbonitrile]
25 | 19.9 | CC1(C)C=C(n2nc(-c3ccc(Cl)cc3)ccc2=O)c2cc(C#N)ccc2O1 [Compound 57, 4-[3-(4-Chloro-phenyl)-6-oxo-6H-pyridazin-1-yl]-2,2-dimethyl-2H-chromene-6-carbonitrile]
26 | 14.1 | CC1(C)Oc2ccc(C#N)cc2[C@@H](n2sc3ccccc3c2=O)[C@@H]1O [Compound 30]
27 | 21.5 | CC1(C)Oc2ccc(S(=O)(=O)c3cccc(F)c3)cc2[C@@H](Oc2noc3cc(Cl)ccc23)[C@@H]1O [Compound 99, 4R-(6-Chloro-benzo[d]isoxazol-3-yloxy)-6-(3-fluoro-benzenesulfonyl)-2,2-dimethyl-chroman-3S-ol]
28 | 3.45 | CC1(C)Oc2ccc(C#N)cc2[C@@H](SC2=NCCO2)[C@@H]1O (stereo in doubt) [Compound 68, 4-(4,5-Dihydro-oxazol-2-ylsulfanyl)-3-hydroxy-2,2-dimethyl-chroman-6-carbonitrile]
29 | 8.82 | CC1(C)Oc2ccc(C#N)cc2[C@@H](Oc2ccn(-c3ccc(Cl)cc3)n2)[C@@H]1O (racemic) [Compound 55, 4-[1-(4-Chloro-phenyl)-1H-pyrazol-3-yloxy]-3-hydroxy-2,2-dimethyl-chroman-6-carbonitrile]
30 | > 30 | CC1(C)Oc2ccncc2[C@@H](n2ccnc2-c2ccc(Cl)cc2)[C@@H]1O (racemic) [Compound 111, 4-[2-(4-Chloro-phenyl)-imidazol-1-yl]-2,2-dimethyl-3,4-dihydro-2H-pyrano[3,2-c]pyridin-3-ol]
31 | 16.2 | CC1(C)Oc2ccc(C#N)cc2[C@@H](n2nc(N)c3c(F)cccc32)[C@@H]1O [Compound 36, 4R-(3-Amino-4-fluoro-indazol-1-yl)-3S-hydroxy-2,2-dimethyl-chroman-6-carbonitrile]
32 | 20 | CC1(C)Oc2ccc(C#N)cc2[C@@H](n2nc(N)c3ccccc32)[C@@H]1O [Compound 37, 4R-(3-Amino-indazol-1-yl)-3S-hydroxy-2,2-dimethyl-chroman-6-carbonitrile]
33 | 1.54 | CC1(C)Oc2ccc(C#N)cc2[C@@H](NS(=O)(=O)c2cccc(Cl)c2)[C@@H]1O [Compound 66, (3S,4R)-3-Chloro-N-(6-cyano-3-hydroxy-2,2-dimethyl-chroman-4-yl)-benzenesulfonamide]

Row | SMILES | EC50 [µM]
34 | CC1(C)Oc2ccc(C#N)cc2[C@@H](NP(=O)(c2ccccc2)c2ccccc2)[C@@H]1O [Compound 65] | > 30
